Test results from paper PMC7614683, “A small molecule PI3Kα activator for cardioprotection and neuroregeneration” (Nature, 2023).

Experiments:
Assay in all cases: SelectScreen LanthaScreen Binding
Details in all cases: 1000 nM
FGFR1 V561M = FGFR1 V561M (Homo sapiens, UniProt P11362, V561M)
Experimental: (§1) 133 protein kinases and 7 lipid kinases were counterscreened, with 1938 used at 1 μM, using the Adapta, Lantha and Z-LYTE assays (SelectScreen Kinase Profiling Service; Thermofisher – experimental details of these assays can be found here: https://www.thermofisher.com/uk/en/home/industrial/pharma-biopharma/drug-discovery-development/target-and-lead-identification-and-validation/kinasebiology/kinase-activity-assays.html. The tree represention in KinMap[59] generated courtesy of Cell Signaling Technology, Inc. (www.cellsignal.com). mTORC1 (mTOR/RAPTOR/LST8) protein complex and ATM kinase and substrates were produced as previously described[57],[60]. Screening of 1938 was conducted using SuperSep Phos-Tag 50 μmol/l 100 x 100 x 6.6 mm 17-well (192-18001/199-18011) gels. For ATM assays, 100 nM ATM was incubated for 30 min at 30°C with 5 μM GST-p53 and 1 mM ATP, in the absence or presence of 200 μM 1938 in ATM Kinase Buffer (50 mM HEPES pH 7.5, 100 mM NaCl, 10% glycerol, 2 mM […], 5 mM MgCl2). As a positive control for ATM activation, the same reaction was carried out with 100 nM ATM/5 μM GST-p53/1 mM ATP in the presence of 100 nM Mre11-Rad50-Nbs1 (MRN) complex, a known activator of ATM[61]. For mTORC1 assays, 50 nM mTORC1 complex (mTOR/LST8/RAPTOR) was incubated for 3 h at 30°C with 15 μM 4E-BP1, 10 mM MgCl2 and 250 μM ATP, in the absence or presence of 200 μM 1938. As a ‘positive’ control, a higher concentration (150 nM) of mTORC1 complex (mTOR/LST8/RAPTOR) was incubated for 3 h at 30°C with 15 μM 4E-BP1, 10 mM MgCl2 and 250 μM ATP. Kinase reactions were quenched by addition of SDS-PAGE Loading Buffer (as per manufacturer’s instructions) and freezing at -20°C before being run on the Phos-tag gels at 150 V for 90 min. Gels were then stained using InstantBlue™ Coomassie, and quantified using BioRad Image Lab Software. Kinase assays were carried out in triplicate.

MAP4K3 (GLK) = molecular target: T1, MAP4K3 (GLK) (Homo sapiens, UniProt Q8IVH8)
T1 sequence (Q8IVH8 1-894): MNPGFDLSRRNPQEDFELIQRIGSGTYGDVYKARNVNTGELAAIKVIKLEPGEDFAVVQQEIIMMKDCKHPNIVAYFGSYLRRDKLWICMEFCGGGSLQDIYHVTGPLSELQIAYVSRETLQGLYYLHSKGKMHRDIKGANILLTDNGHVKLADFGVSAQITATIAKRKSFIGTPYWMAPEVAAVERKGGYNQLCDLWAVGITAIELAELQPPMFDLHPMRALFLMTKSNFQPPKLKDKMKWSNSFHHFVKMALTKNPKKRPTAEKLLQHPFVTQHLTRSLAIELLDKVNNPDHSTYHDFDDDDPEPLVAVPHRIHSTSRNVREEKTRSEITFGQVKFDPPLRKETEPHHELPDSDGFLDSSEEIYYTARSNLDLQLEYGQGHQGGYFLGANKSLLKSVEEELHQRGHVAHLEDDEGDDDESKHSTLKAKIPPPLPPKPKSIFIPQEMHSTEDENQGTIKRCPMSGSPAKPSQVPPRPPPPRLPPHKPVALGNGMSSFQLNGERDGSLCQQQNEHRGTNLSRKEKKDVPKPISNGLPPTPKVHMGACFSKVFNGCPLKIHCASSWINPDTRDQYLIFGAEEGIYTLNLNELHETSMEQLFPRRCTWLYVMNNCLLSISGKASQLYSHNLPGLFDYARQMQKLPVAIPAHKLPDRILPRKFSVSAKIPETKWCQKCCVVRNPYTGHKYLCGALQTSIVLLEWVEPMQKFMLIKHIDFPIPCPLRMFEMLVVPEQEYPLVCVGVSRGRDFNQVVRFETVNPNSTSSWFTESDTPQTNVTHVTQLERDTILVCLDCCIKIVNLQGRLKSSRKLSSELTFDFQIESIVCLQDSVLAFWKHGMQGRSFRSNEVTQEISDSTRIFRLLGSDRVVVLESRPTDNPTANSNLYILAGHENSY
Experimental: as §1

DDR2 = molecular target: T2, DDR2 (Homo sapiens, UniProt Q16832)
T2 sequence (Q16832 22-855): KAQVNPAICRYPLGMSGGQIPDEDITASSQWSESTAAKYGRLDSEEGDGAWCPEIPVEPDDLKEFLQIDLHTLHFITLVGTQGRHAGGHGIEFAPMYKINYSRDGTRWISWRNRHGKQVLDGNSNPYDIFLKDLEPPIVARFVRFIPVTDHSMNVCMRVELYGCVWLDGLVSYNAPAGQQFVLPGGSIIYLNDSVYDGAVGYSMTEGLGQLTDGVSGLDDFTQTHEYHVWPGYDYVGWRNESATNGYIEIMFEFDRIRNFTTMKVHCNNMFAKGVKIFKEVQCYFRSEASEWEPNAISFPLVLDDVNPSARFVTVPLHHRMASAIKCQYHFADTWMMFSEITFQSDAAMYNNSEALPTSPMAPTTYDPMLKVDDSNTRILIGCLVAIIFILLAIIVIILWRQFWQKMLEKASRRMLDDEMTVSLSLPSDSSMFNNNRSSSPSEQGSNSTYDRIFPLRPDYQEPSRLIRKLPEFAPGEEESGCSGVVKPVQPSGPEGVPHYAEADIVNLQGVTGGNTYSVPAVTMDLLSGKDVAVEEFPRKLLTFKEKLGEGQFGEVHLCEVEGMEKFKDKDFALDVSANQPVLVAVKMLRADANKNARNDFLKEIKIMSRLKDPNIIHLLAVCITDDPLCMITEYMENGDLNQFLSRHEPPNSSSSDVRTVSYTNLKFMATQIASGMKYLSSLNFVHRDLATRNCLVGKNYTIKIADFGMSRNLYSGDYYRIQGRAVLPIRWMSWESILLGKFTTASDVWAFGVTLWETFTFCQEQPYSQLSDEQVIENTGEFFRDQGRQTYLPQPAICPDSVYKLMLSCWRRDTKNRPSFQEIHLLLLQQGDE
Experimental: as §1

Chain of FGFR1 V561M (P11362 22-822 V561M): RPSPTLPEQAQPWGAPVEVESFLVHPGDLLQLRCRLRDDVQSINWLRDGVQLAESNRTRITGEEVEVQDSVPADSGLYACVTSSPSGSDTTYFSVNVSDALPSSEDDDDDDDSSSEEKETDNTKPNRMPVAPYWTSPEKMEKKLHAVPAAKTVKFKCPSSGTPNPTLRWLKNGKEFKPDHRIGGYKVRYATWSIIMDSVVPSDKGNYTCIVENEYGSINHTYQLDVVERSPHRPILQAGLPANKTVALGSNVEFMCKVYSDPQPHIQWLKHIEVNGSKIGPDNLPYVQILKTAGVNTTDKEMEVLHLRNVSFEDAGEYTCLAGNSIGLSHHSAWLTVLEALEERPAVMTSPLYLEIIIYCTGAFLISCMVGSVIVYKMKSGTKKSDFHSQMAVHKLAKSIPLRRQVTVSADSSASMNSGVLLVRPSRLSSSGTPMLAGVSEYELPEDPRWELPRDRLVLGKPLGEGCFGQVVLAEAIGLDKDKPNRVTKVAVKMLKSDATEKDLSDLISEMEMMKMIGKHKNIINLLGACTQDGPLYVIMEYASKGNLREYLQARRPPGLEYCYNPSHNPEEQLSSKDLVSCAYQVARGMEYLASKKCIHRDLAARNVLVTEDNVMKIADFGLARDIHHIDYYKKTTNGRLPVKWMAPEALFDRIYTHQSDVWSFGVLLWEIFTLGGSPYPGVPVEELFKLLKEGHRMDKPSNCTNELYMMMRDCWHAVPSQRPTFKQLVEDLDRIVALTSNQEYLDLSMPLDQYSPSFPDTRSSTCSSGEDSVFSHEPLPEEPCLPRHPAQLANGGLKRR

How did the “% Displacement Point 1” value (FGFR1 V561M) turn out when `CCN1CCN(c2ccc(Nc3cc(Nc4cccc5c4N(C(C)=O)CC5)ccn3)cc2)CC1` [Compound 1938] was run?
The value was 8%.

What about the “% Displacement Point 2” value (FGFR1 V561M) of the same molecule?
Its value is 8.43%.

What about the “% Displacement mean” value (FGFR1 V561M) of the same molecule?
The value was 8%.

What about the “% Displacement Point 1” value (MAP4K3 (GLK)) of the same molecule?
The value was -1.29%.

What about the “% Displacement Point 2” value (MAP4K3 (GLK)) of the same molecule?
Its value is 0.495%.

What about the “% Displacement mean” value (MAP4K3 (GLK)) of the same molecule?
The value was -0.396%.

What about the “% Displacement Point 1” value (DDR2) of the same molecule?
Its value is -6.46%.

And the “% Displacement Point 2” value (DDR2)?
Its value is 0.345%.

What about the “% Displacement mean” value (DDR2) of the same molecule?
The value was -3%.
